We go through 48 compounds from patent publication US7001921B1, “Cell adhesion inhibitors” (Biogen Idec MA Inc., priority 1995, dated 2006).

pIC50: −log10 of the molar value.

T1 sequence (P13612 34-1032): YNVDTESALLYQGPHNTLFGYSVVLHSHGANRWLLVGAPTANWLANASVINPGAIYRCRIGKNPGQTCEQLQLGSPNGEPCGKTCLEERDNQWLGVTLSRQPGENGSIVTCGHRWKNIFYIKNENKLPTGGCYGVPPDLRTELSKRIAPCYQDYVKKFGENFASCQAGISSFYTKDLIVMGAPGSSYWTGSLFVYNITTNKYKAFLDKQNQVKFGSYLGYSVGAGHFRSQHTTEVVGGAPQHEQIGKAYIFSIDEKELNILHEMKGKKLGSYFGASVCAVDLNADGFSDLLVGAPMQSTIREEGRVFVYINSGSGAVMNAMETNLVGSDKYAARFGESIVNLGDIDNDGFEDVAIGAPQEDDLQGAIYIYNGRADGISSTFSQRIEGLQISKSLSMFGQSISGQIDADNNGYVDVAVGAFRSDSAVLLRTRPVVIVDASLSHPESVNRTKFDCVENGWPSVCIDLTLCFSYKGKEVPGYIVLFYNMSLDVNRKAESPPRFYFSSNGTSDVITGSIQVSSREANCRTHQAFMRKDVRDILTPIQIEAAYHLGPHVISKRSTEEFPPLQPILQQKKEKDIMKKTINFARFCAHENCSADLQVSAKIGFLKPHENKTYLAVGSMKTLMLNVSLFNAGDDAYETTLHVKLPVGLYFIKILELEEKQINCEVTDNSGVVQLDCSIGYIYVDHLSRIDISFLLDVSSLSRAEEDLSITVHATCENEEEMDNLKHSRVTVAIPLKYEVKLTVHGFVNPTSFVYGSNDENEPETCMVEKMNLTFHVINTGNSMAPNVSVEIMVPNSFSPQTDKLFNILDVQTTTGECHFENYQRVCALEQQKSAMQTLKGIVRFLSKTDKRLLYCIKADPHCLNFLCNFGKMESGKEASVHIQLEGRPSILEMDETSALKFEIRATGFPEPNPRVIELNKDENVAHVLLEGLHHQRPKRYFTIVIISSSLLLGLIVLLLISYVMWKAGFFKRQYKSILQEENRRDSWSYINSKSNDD
T1 sequence (P05556 21-798): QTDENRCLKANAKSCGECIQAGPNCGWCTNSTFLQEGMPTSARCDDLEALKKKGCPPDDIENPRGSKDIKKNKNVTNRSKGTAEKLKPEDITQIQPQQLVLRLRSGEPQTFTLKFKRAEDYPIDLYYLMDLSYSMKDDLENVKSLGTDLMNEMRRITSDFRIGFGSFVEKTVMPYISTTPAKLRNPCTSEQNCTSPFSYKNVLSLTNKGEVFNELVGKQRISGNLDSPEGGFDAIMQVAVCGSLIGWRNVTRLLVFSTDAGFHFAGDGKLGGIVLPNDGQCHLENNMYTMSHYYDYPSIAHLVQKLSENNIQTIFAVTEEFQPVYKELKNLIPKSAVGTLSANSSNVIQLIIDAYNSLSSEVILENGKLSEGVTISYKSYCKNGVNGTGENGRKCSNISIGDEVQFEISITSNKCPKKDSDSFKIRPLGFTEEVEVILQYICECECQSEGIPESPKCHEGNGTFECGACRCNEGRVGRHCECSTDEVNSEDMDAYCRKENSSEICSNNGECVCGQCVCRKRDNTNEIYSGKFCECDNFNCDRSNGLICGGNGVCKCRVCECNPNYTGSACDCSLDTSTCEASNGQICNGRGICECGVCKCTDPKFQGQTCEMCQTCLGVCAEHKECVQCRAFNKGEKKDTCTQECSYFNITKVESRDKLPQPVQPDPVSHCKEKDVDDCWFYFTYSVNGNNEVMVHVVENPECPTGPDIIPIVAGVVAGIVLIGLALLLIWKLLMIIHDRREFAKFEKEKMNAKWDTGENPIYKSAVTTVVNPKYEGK

The test addresses T1, VLA4 (Homo sapiens, UniProt P05556+P13612).
T1 construct: endogenous in cells; host or cells: Ramos cells
Description: Inhibition of VLA4-dependent adhesion to BSA-CS1 (labelled Ramos cells). The class given is cell-based. The settings on record: binding of BCECF-AM labelled Ramos cells to CS1 peptide-coated wells, 2 mM MnCl2, 30 minutes at room temperature; IC50 range. An excerpt:
For example, the cell adhesion inhibitory activity of these compounds may be measured by determining the concentration of inhibitor required to block the binding of VLA-4-expressing cells to fibronectin- or CS1-coated plates. In this assay microtiter wells are coated with either fibronectin (containing the CS-1 sequence) or CS-1. If CS-1 is used, it must be conjugated to a carrier protein, such as bovine serum albumin, in order to bind to the wells. Once the wells are coated, varying concentrations of the test compound are then added together with appropriately labelled, VLA-4-expressing cells. Alternatively, the test compound may be added first and allowed to incubate with the coated wells prior to the addition of the cells. The cells are allowed to incubate in the wells for at least 30 minutes. Following incubation, the wells are emptied and washed. Inhibition of binding is measured by quantitating the fluorescence or radioactivity bound to the plate for each of the various concentrations of test compound, as well as for controls containing no test compound.
VLA-4-expressing cells that may be utilized in this assay include Ramos cells, Jurkat cells, A375 melanoma cells, as well as human peripheral blood lymophocytes (PBLs). The cells used in this assay may be fluorescently or radioactively labelled.
This assay was used to assess the potency of VLA4-directed inhibitory compounds of this invention.
We dissolved BSA-SMCC (Pierce Chemical, Rockford, Ill.; Catalog # 77115) in H2O at a concentration of 10 mg/mL. [SEQ ID NO:4]: […](“Cys-Tyr-CS1 peptide”), which we synthesized by conventional solid phase chemistry and purified by HPLC, was dissolved in 10 mM HEPES pH 5, 50 mM NaCl and 0.1 mM EDTA also at a concentration of 10 mg/mL. We then mixed 500 μL of BSA-SMCC, 250 μL of Cys-Tyr-CS1 peptide and 75 μL of […] and allowed the conjugation reaction to proceed for 30 minutes. We stopped the reaction by adding 1 μL of beta-mercaptoethanol. Samples were analyzed for cross-linking by SDS-PAGE. This reaction produced multiple molecules of the Cys-Tyr-CS1 peptide conjugate to each BSA molecule.
We coated the wells of a Linbro titertek polystyrene 96-well flat bottom plate (Flow Laboratories, Maclean, Va.; catalog #76-231-05) with 100 μL of the above-described BSA-CS1 solution diluted to 1 μg/mL in 0.05 M NaHCO3 (15 mM NaHCO3, 35 mM Na2CO3) pH 9.2. Some wells were not coated with CS1 in order to assess non-specific cell binding (NSB). The plate was then incubated overnight at 4° C.
Following this incubation, the contents of the wells were removed by inverting and blotting the plate. All of the wells were then blocked with 100 μL of 1% BSA in PBS, 0.02% NaN3, for a minimum of one hour at room temperature.
3. Preparation of Fluorescently Labelled Ramos Cells Ramos cells are grown, maintained and labelled in RPMI 1640 culture medium containing 1% BSA. Just prior to running the assay, we added 2′,7′-bis-(2-carboxyethyl)5 (and -6) carboxyfluorescein acetoxymethyl ester (“BCECF-AM”; Molecular Probes Inc., Eugene, Oreg.; catalog #B-1150) to a final concentration of 2 μM to a culture of Ramos cells (4×10^6 cells/mL). We incubated the cells for 20 minutes at 37° C.
Following labelling, the cells were washed twice in assay buffer (24 mM TRIS, 137 mM NaCl, 2.7 mM KCl, pH 7.4, containing 0.1% BSA and 2 mM glucose) to remove any cations originating from the culture medium. The cells were then resuspended in assay buffer to 4×10^6 cells/mL and 2 mM MnCl2 was added to upregulate VLA4 on the surface of the cells.
Immediately prior to running the assay, we removed the BSA blocking solution from the 96-well plates and washed the wells with 100 μL of assay buffer. We then added to each well 25 μL of test cell adhesion inhibitory compound at 2× the final concentration and 25 μL of the labelled Ramos cells. Final concentrations were selected across a range of anticipated IC50s, usually between 0.01 nM–10 μM. […]
`CC(C)CC(NC(=O)Cc1ccccn1)C(=O)NC(CC(=O)O)c1ccccc1` (stereo not drawn) [compound 1004]: the negative-log IC50 (pIC50) (as a rule, the IC50 on a negative log10 scale, so that one unit is a factor of ten) was below 5.00.
Then `CC(C)CC(NC(=O)Cc1cccnc1)C(=O)NC(CC(=O)O)c1ccccc1` (stereo not drawn) [compound 1005], with below 5.00; and `CC(C)CC(NC(=O)Cc1ccc(O)cc1)C(=O)NC(CC(=O)O)c1ccc2c(c1)OCO2` (stereo not drawn) [compound 1006], with 5.00 to 7.30; and `CC(C)CC(NC(=O)Cc1ccncc1)C(=O)NC(CC(=O)O)c1ccccc1` (stereo not drawn) [compound 1007], with below 5.00.
`CC(C)CC(NC(=O)c1ccccc1)C(=O)NC(CC(=O)O)c1ccccc1` (stereo not drawn) [compound 1008] had a pIC50 below 5.00.
Take `CC(C)CC(NC(=O)Cc1ccc(-c2ccccc2)cc1)C(=O)NC(CC(=O)O)c1ccccc1` (stereo not drawn) [compound 1009]: the negative logarithm of the IC50 (pIC50) is below 5.00.
The result for `CC(C)CC(NC(=O)Cc1ccc(Cl)cc1)C(=O)NC(CC(=O)O)c1ccccc1` (stereo not drawn) [compound 1010] reads 5.00 to 7.30; that for `CC(C)CC(NC(=O)Cc1ccc(C(F)(F)F)cc1)C(=O)NC(CC(=O)O)c1ccccc1` (stereo not drawn) [compound 1011], below 5.00.
Then `CC(C)CC(NC(=O)c1c[nH]c2ccccc12)C(=O)NC(CC(=O)O)c1ccccc1` (stereo not drawn) [compound 1014], with below 5.00; and `CC(C)CC(NC(=O)Cc1ccc(NC(=O)c2ccccc2)cc1)C(=O)NC(CC(=O)O)c1ccccc1` (stereo not drawn) [compound 1015], with 5.00 to 7.30.
The result for `CC(C)CC(NC(=O)Cc1ccc(N)cc1)C(=O)NC(CC(=O)O)c1ccccc1` (stereo not drawn) [compound 1016] reads below 5.00; that for `CC(C)CC(NC(=O)C1(c2ccccc2)CC1)C(=O)NC(CC(=O)O)c1ccccc1` (stereo not drawn) [compound 1017], below 5.00.
As to `CC(=O)Nc1cccc(CC(=O)NC(CC(C)C)C(=O)NC(CC(=O)O)c2ccccc2)c1` (stereo not drawn) [compound 1018], the pIC50 was below 5.00.
The result for `CC(C)CC(NC(=O)Cc1cccc(NC(=O)c2ccccc2)c1)C(=O)NC(CC(=O)O)c1ccccc1` (stereo not drawn) [compound 1020] reads below 5.00; that for `CC(C)CC(NC(=O)Cc1cccc2ccccc12)C(=O)NC(CC(=O)O)c1ccccc1` (stereo not drawn) [compound 1021], 5.00 to 7.30.
Then `CC(C)CC(NC(=O)Cc1ccc2ccccc2c1)C(=O)NC(CC(=O)O)c1ccccc1` (stereo not drawn) [compound 1022], with below 5.00.
The result for `CC(C)CC(NC(=O)Cc1ccc(NC(=O)Cc2ccccc2)cc1)C(=O)NC(CC(=O)O)c1ccccc1` (stereo not drawn) [compound 1023] reads 5.00 to 7.30.
Turning to `CC(C)CC(NC(=O)Cc1ccccc1N)C(=O)NC(CC(=O)O)c1ccccc1` (stereo not drawn) [compound 1024], the negative logarithm of the IC50 (pIC50) was below 5.00.
The result for `CC(C)CC(NC(=O)Cc1ccccc1NC(=O)c1ccccc1)C(=O)NC(CC(=O)O)c1ccccc1` (stereo not drawn) [compound 1026] reads below 5.00; that for `CC(C)CC(NC(=O)Cc1ccccc1NC(=O)OCc1ccccc1)C(=O)NC(CC(=O)O)c1ccccc1` (stereo not drawn) [compound 1027], below 5.00.
The compound `CC(C)CC(NC(=O)Cc1ccc(NC(=O)c2ccccc2N)cc1)C(=O)NC(CC(=O)O)c1ccccc1` (stereo not drawn) [compound 1028] had a pIC50 of 5.00 to 7.30.
On to `CNC(=O)Nc1ccccc1C(=O)Nc1ccc(CC(=O)NC(CC(C)C)C(=O)NC(CC(=O)O)c2ccccc2)cc1` (stereo not drawn) [compound 1029], for which the negative-log IC50 (pIC50) is below 5.00.
For the compound `CC(C)CC(NC(=O)Cc1cccc(N)c1)C(=O)NC(CC(=O)O)c1ccccc1` (stereo not drawn) [compound 1030], the pIC50 was below 5.00.
The result for `CC(C)CC(NC(=O)Cc1cccc(NC(=O)OCc2ccccc2)c1)C(=O)NC(CC(=O)O)c1ccccc1` (stereo not drawn) [compound 1031] reads below 5.00; that for `CC(C)CC(NC(=O)Cc1cccc(NS(=O)(=O)c2ccccc2)c1)C(=O)NC(CC(=O)O)c1ccccc1` (stereo not drawn) [compound 1032], below 5.00; that for `CC(C)CC(NC(=O)Cc1ccccc1)C(=O)NC(CC(=O)O)c1ccc2c(c1)CCC2` (stereo not drawn) [compound 1036], 5.00 to 7.30.
The result for `O=C(O)CC(NC(=O)C(Cc1nccs1)NC(=O)Cc1ccc(NC(=O)Nc2ccccc2)cc1)c1ccccc1` (stereo not drawn) [compound 1037] reads 5.00 to 7.30.
Then `CCCC(NC(=O)Cc1ccccc1)C(=O)NC(CC(=O)O)c1ccccc1` (stereo not drawn) [compound 1038], with below 5.00; and `CCCCC(NC(=O)Cc1ccccc1)C(=O)NC(CC(=O)O)c1ccccc1` (stereo not drawn) [compound 1039], with 5.00 to 7.30; and `CCC(C)C(NC(=O)Cc1ccccc1)C(=O)NC(CC(=O)O)c1ccccc1` (stereo not drawn) [compound 1040], with 5.00 to 7.30.
With `O=C(O)CC(NC(=O)C(Cc1ccccc1)NC(=O)Cc1ccccc1)c1ccccc1` (stereo not drawn) [compound 1046], the negative logarithm of the IC50 (pIC50) is below 5.00.
Then `CC(C)CC(NC(=O)Cc1ccc(NC(=O)Nc2ccccc2)cc1)C(=O)NC(CC(=O)O)c1ccc2c(c1)OCO2` (stereo not drawn) [compound 1050], with above 7.30.
Then `CC(C)CC(NC(=O)CCc1ccc(NC(=O)Nc2ccccc2)cc1)C(=O)NC(CC(=O)O)c1ccccc1` (stereo not drawn) [compound 1052], with 5.00 to 7.30.
Then `CC(C)CC(C(=O)NC(CC(=O)O)c1ccccc1)N(C)C(=O)Cc1ccc(NC(=O)Nc2ccccc2)cc1` (stereo not drawn) [compound 1053], with 5.00 to 7.30; and `CC(C)CC(NC(=O)Cc1cccc(NC(=O)Nc2ccccc2)c1)C(=O)NC(CC(=O)O)c1ccccc1` (stereo not drawn) [compound 1054], with 5.00 to 7.30.
Compound `CC(C)CC(C(=O)NC(CC(=O)O)c1ccc2c(c1)OCO2)N(C)C(=O)Cc1ccc(NC(=O)Nc2ccccc2)cc1` (stereo not drawn) [compound 1055] had a pIC50 above 7.30.
In the case of `COc1cc(CC(=O)NC(CC(C)C)C(=O)NC(CC(=O)O)c2ccc3c(c2)OCO3)ccc1NC(=O)Nc1ccccc1` (stereo not drawn) [compound 1056], the negative-log IC50 (pIC50) was above 7.30.
Then `CC(C)CC(NC(=O)Cc1ccc(NC(=O)Nc2ccccc2)cc1)C(=O)NC(CC(=O)O)c1ccccc1` (stereo not drawn) [compound 1060], with 5.00 to 7.30; and `CC(C)CC(NC(=O)Cc1ccc(NC(=O)Nc2ccccc2)cc1)C(=O)NC(CC(=O)O)Cc1ccccc1` (stereo not drawn) [compound 1063], with 5.00 to 7.30; and `CNC(=O)Nc1ccc(CC(=O)NC(CC(C)C)C(=O)NC(CC(=O)O)c2ccc3c(c2)OCO3)cc1` (stereo not drawn) [compound 1064], with 5.00 to 7.30.
Then `CC(C)CC(NC(=O)Cc1ccc(NC(=O)NC(C)C)cc1)C(=O)NC(CC(=O)O)c1ccc2c(c1)OCO2` (stereo not drawn) [compound 1065], with 5.00 to 7.30.
Then `CC(C)CC(NC(=O)Cc1ccc(NC(=O)NC2CCCCC2)cc1)C(=O)NC(CC(=O)O)c1ccc2c(c1)OCO2` (stereo not drawn) [compound 1068], with 5.00 to 7.30; and `COc1ccccc1C(CC(=O)O)NC(=O)C(CC(C)C)NC(=O)Cc1ccc(NC(=O)Nc2ccccc2)cc1` (stereo not drawn) [compound 1069], with above 7.30.
Regarding `COc1ccccc1C(CC(=O)O)NC(=O)C(CC(C)C)NC(=O)Cc1ccc(O)cc1` (stereo not drawn) [compound 1070], the pIC50 was 5.00 to 7.30.
The result for `COc1cccc(C(CC(=O)O)NC(=O)C(CC(C)C)NC(=O)Cc2ccc(NC(=O)Nc3ccccc3)cc2)c1` (stereo not drawn) [compound 1072] reads above 7.30; that for `CC(C)CC(NC(=O)Cc1ccc(NC(=O)OCc2ccccc2)cc1)C(=O)NC(CC(=O)O)c1ccc2c(c1)OCO2` (stereo not drawn) [compound 1073], 5.00 to 7.30; that for `CC(C)CC(NC(=O)Cc1ccc(NS(=O)(=O)c2ccccc2)cc1)C(=O)NC(CC(=O)O)c1ccc2c(c1)OCO2` (stereo not drawn) [compound 1074], 5.00 to 7.30.
The result for `CC(C)CC(NC(=O)Cc1ccc(NC(=O)c2ccccc2)cc1)C(=O)NC(CC(=O)O)c1ccc2c(c1)OCO2` (stereo not drawn) [compound 1075] reads 5.00 to 7.30.
